Laboratory results reported in ChEMBL document CHEMBL1152723, “Remarkable enhancement in the DNA-binding ability of C2-fluoro substituted pyrrolo[2,1-c][1,4]benzodiazepines and their anticancer potential” (2009).

Assays:
DNA = assay: Binding affinity to calf thymus DNA assessed as change in melting temperature at a compound to DNA molar ratio of 1:5 at pH 7 by thermal denaturation assay; type: nucleic-acid assay; settings: Bos taurus
NCI-H226 = assay: Growth inhibition of human NCI-H226 cells after 48 hrs by sulforhodamine B protein assay; type: functional; settings: NCI-H226, 48 h
SK-OV-3 = assay: Growth inhibition of human SKOV3 cells after 48 hrs by sulforhodamine B protein assay; type: functional; settings: SK-OV-3, 48 h
PC-3 = assay: Growth inhibition of human PC3 cells after 48 hrs by sulforhodamine B protein assay; type: functional; settings: PC-3, 48 h
MDA-MB-435 = assay: Growth inhibition of human MDA-MB-435 cells after 48 hrs by sulforhodamine B protein assay; type: functional; settings: MDA-MB-435, 48 h
T47D = assay: Growth inhibition of human T47D cells after 48 hrs by sulforhodamine B protein assay; type: functional
UACC-62 = assay: Growth inhibition of human UACC62 cells after 48 hrs by sulforhodamine B protein assay; type: functional; settings: UACC-62, 48 h
BT-549 = assay: Growth inhibition of human BT549 cells after 48 hrs by sulforhodamine B protein assay; type: functional; settings: BT-549, 48 h
HT-29 = assay: Growth inhibition of human HT-29 cells after 48 hrs by sulforhodamine B protein assay; type: functional; settings: HT-29, 48 h
Malme-3M = assay: Growth inhibition of human MALME-3M cells after 48 hrs by sulforhodamine B protein assay; type: functional
SF-295 = assay: Growth inhibition of human SF295 cells after 48 hrs by sulforhodamine B protein assay; type: functional; settings: SF-295, 48 h
COLO 205 = assay: Growth inhibition of human COLO205 cells after 48 hrs by sulforhodamine B protein assay; type: functional; settings: COLO 205, 48 h
A549 = assay: Growth inhibition of human A549 cells after 48 hrs by sulforhodamine B protein assay; type: functional; settings: A549, 48 h
[1] = molecular target: T1, Type II restriction enzyme BamHI (Bacillus amyloliquefaciens) (UniProt P23940); assay: Inhibition of Bacillus amyloliquefaciens BamH1-mediated pBR322 cleavage after 16 hrs by RED100-restriction endonuclease digestion assay
T1 sequence (whole entry): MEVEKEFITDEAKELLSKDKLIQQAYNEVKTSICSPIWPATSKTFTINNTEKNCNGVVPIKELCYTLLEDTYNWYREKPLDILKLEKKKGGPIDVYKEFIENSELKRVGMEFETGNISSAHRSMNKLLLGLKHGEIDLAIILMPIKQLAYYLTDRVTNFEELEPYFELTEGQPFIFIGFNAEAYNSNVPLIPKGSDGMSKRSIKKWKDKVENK

HL-60(TB) = assay: Growth inhibition of human HL-60(TB) cells after 48 hrs by sulforhodamine B protein assay; type: functional; settings: HL-60, 48 h
CAKI-1 = assay: Growth inhibition of human Caki1 cells after 48 hrs by sulforhodamine B protein assay; type: functional; settings: CAKI-1, 48 h
NCI-H23 = assay: Growth inhibition of human NCI-H23 cells after 48 hrs by sulforhodamine B protein assay; type: functional; settings: NCI-H23, 48 h
HCT-15 = assay: Growth inhibition of human HCT15 cells after 48 hrs by sulforhodamine B protein assay; type: functional; settings: HCT-15, 48 h
[2] = Growth inhibition of human Hs 578T cells after 48 hrs by sulforhodamine B protein assay; type: functional
SN12C = assay: Growth inhibition of human SN12C cells after 48 hrs by sulforhodamine B protein assay; type: functional
CCRF-CEM = assay: Growth inhibition of human CCRF-CEM cells after 48 hrs by sulforhodamine B protein assay; type: functional
HCC 2998 = assay: Growth inhibition of human HCC2998 cells after 48 hrs by sulforhodamine B protein assay; type: functional; settings: HCC 2998, 48 h
U-251 = assay: Growth inhibition of human U251 cells after 48 hrs by sulforhodamine B protein assay; type: functional; settings: U-251, 48 h
MDA-MB-231 = assay: Growth inhibition of human MDA-MB-231 cells after 48 hrs by sulforhodamine B protein assay; type: functional; settings: MDA-MB-231, 48 h
KM12 = assay: Growth inhibition of human KM12 cells after 48 hrs by sulforhodamine B protein assay; type: functional; settings: KM12, 48 h
IGROV-1 = assay: Growth inhibition of human IGROV1 cells after 48 hrs by sulforhodamine B protein assay; type: functional; settings: IGROV-1, 48 h
OVCAR-5 = assay: Growth inhibition of human OVCAR5 cells after 48 hrs by sulforhodamine B protein assay; type: functional; settings: OVCAR-5, 48 h
DU-145 = assay: Growth inhibition of human DU145 cells after 48 hrs by sulforhodamine B protein assay; type: functional; settings: DU-145, 48 h
SNB-75 = assay: Growth inhibition of human SNB75 cells after 48 hrs by sulforhodamine B protein assay; type: functional; settings: SNB-75, 48 h
SK-MEL-28 = assay: Growth inhibition of human SK-MEL-28 cells after 48 hrs by sulforhodamine B protein assay; type: functional; settings: SK-MEL-28, 48 h
K562 = assay: Growth inhibition of human K562 cells after 48 hrs by sulforhodamine B protein assay; type: functional; settings: K562, 48 h
ACHN = assay: Growth inhibition of human ACHN cells after 48 hrs by sulforhodamine B protein assay; type: functional
SF-539 = assay: Growth inhibition of human SF539 cells after 48 hrs by sulforhodamine B protein assay; type: functional; settings: SF-539, 48 h
[3] = Growth inhibition of human […] cells after 48 hrs by sulforhodamine B protein assay; type: functional
OVCAR-4 = assay: Growth inhibition of human OVCAR4 cells after 48 hrs by sulforhodamine B protein assay; type: functional; settings: OVCAR-4, 48 h
OVCAR-8 = assay: Growth inhibition of human OVCAR8 cells after 48 hrs by sulforhodamine B protein assay; type: functional; settings: OVCAR-8, 48 h
SNB-19 = assay: Growth inhibition of human SNB19 cells after 48 hrs by sulforhodamine B protein assay; type: functional; settings: SNB-19, 48 h
NCI-H522 = assay: Growth inhibition of human NCI-H522 cells after 48 hrs by sulforhodamine B protein assay; type: functional; settings: NCI-H522, 48 h
OVCAR-3 = assay: Growth inhibition of human OVCAR-3 cells after 48 hrs by sulforhodamine B protein assay; type: functional; settings: OVCAR-3, 48 h
UO-31 = assay: Growth inhibition of human UO31 cells after 48 hrs by sulforhodamine B protein assay; type: functional; settings: UO-31, 48 h
HCT-116 = assay: Growth inhibition of human HCT116 cells after 48 hrs by sulforhodamine B protein assay; type: functional; settings: HCT-116, 48 h
MCF7 = assay: Growth inhibition of human MCF7 cells after 48 hrs by sulforhodamine B protein assay; type: functional; settings: MCF7, 48 h
MOLT-4 = assay: Growth inhibition of human MOLT4 cells after 48 hrs by sulforhodamine B protein assay; type: functional; settings: MOLT-4, 48 h
LOX IMVI = assay: Growth inhibition of human LOXIMVI cells after 48 hrs by sulforhodamine B protein assay; type: functional
UACC-257 = assay: Growth inhibition of human UACC257 cells after 48 hrs by sulforhodamine B protein assay; type: functional; settings: UACC-257, 48 h
A498 = assay: Growth inhibition of human A498 cells after 48 hrs by sulforhodamine B protein assay; type: functional; settings: A498, 48 h
SK-MEL-2 = assay: Growth inhibition of human SK-MEL-2 cells after 48 hrs by sulforhodamine B protein assay; type: functional; settings: SK-MEL-2, 48 h
NCI-H460 = assay: Growth inhibition of human NCI-H460 cells after 48 hrs by sulforhodamine B protein assay; type: functional; settings: NCI-H460, 48 h
786-0 = assay: Growth inhibition of human 786-0 cells after 48 hrs by sulforhodamine B protein assay; type: functional; settings: 786-0, 48 h
HOP-62 = assay: Growth inhibition of human HOP62 cells after 48 hrs by sulforhodamine B protein assay; type: functional; settings: HOP-62, 48 h
SW-620 = assay: Growth inhibition of human SW620 cells after 48 hrs by sulforhodamine B protein assay; type: functional; settings: SW-620, 48 h
EKVX = assay: Growth inhibition of human EKVX cells after 48 hrs by sulforhodamine B protein assay; type: functional
NCI-H322M = assay: Growth inhibition of human NCI-H322M cells after 48 hrs by sulforhodamine B protein assay; type: functional
TK-10 = assay: Growth inhibition of human TK10 cells after 48 hrs by sulforhodamine B protein assay; type: functional; settings: TK-10, 48 h
SR = assay: Growth inhibition of human SR cells after 48 hrs by sulforhodamine B protein assay; type: functional

With `COc1cc2c(cc1OCCCOc1cc3c(cc1OC)C(=O)N1CCC[C@H]1C=N3)N=C[C@@H]1CCCN1C2=O` the ΔTm (DNA) was 10.2 °C.
In the case of `COc1cc2c(cc1OCCCOc1cc3c(cc1OC)C(=O)N1CC(F)(F)C[C@H]1C=N3)N=C[C@@H]1CC(F)(F)CN1C2=O`, the GI50 (NCI-H226) is reported as 620 nM, the GI50 (SK-OV-3) is reported as 600 nM and the GI50 (PC-3) is reported as less than 80 nM. The GI50 (MDA-MB-435) was 570 nM, the ΔTm (DNA) was 13.1 °C and the GI50 (T47D) was 240 nM. For the same compound, the GI50 (UACC-62) was 410 nM, the GI50 (BT-549) was 410 nM and the GI50 (HT-29) was 270 nM. The GI50 (Malme-3M) was 1030 nM, the GI50 (SF-295) was less than 30 nM and the GI50 (COLO 205) was 580 nM. The GI50 (A549) was 1210 nM, the Activity [1] was “Dose-dependent effect” and the GI50 (HL-60(TB)) was 250 nM. The GI50 (CAKI-1) was less than 10 nM, the GI50 (NCI-H23) was 490 nM and the GI50 (HCT-15) was 8620 nM. It also gave a GI50 [2] of 170 nM, a GI50 (SN12C) of 170 nM and a GI50 (CCRF-CEM) of 410 nM. It also gave a GI50 (HCC 2998) of 1030 nM, a GI50 (U-251) of 110 nM and a GI50 (MDA-MB-231) of 800 nM. The GI50 (KM12) was 2070 nM, the GI50 (IGROV-1) was 110 nM and the GI50 (OVCAR-5) was 750 nM. For the same compound, the GI50 (DU-145) was 370 nM, the GI50 (SNB-75) was 80 nM and the GI50 (SK-MEL-28) was 1130 nM. The GI50 (K562) was 530 nM, the GI50 (ACHN) was 650 nM and the GI50 (SF-539) was 150 nM. It also gave a GI50 [3] of 1670 nM, a GI50 (OVCAR-4) of 1450 nM and a GI50 (OVCAR-8) of 420 nM. For the same compound, the GI50 (SNB-19) was 350 nM, the GI50 (NCI-H522) was 140 nM and the GI50 (OVCAR-3) was 940 nM. For the same compound, the GI50 (UO-31) was 1050 nM, the GI50 (HCT-116) was 130 nM and the GI50 (MCF7) was 130 nM. It also gave a GI50 (MOLT-4) of 80 nM, a GI50 (LOX IMVI) of 200 nM and a GI50 (UACC-257) of 1330 nM. For the same compound, the GI50 (A498) was 610 nM, the GI50 (SK-MEL-2) was 1620 nM and the GI50 (NCI-H460) was less than 80 nM. The GI50 (786-0) was less than 10 nM, the GI50 (HOP-62) was 100 nM and the GI50 (SW-620) was 310 nM. For the same compound, the GI50 (EKVX) was 1720 nM, the GI50 (NCI-H322M) was 2190 nM and the GI50 (TK-10) was 3450 nM. It also gave a GI50 (SR) of less than 60 nM.
Compound `C=C1C[C@H]2C=Nc3cc(OCCCOc4cc5c(cc4OC)C(=O)N4CC(=C)C[C@H]4C=N5)c(OC)cc3C(=O)N2C1` has a ΔTm (DNA) of 25.7 °C.
